Experimental data published in patent US20200360391A1, “Medicinal Composition for Treating Intractable Heart Disease” (Osaka University, priority 2016, published 2020).

Legend:
[1] = tested on: spontaneous dilated cardiomyopathy (J2N-k) hamster model; test: Spontaneous dilated cardiomyopathy (J2N-k) hamster model, 8-week administration from 20 weeks of age (Tests 1-3): echocardiography, body weight
Outline: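 Male J2N-k δ-glycan-deficient hamsters (delivered at 18 weeks; 2-week acclimation) were dosed by oral gavage twice daily for 8 weeks in 0.5% CMC-Na (G in distilled water; 5 mL/kg) at human-equivalent doses, e.g. cilostazol 1.7 mg/kg. Camostat PLGA preparation was given 10 mg/kg s.c. every 4 weeks. Echocardiographic EF/FS changes from baseline were assessed at 4 and 8 weeks versus vehicle.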

[2] = tested on: rats; conditions: cited from earlier work
[3] = tested on: lauric acid-induced rat hind limb circulatory disorder model; conditions: oral, 7 consecutive days; cited from earlier work
[4] = tested on: rat coronary artery complete ischemia model; test: Model of ischemia (MI) by rat coronary artery complete ligation (Tests 1 and 2): echocardiography, body weight; conditions: for Action on left ventricular systolic function: MI Test 1, 28-day repeated oral administration b.i.d., NOAEL-based doses
[5] = tested on: dogs; conditions: repeated oral administration in dogs; cited from earlier work
[6] = Canine rapid pacing severe dilated cardiomyopathy model, long-term repeated oral administration; format: in vivo; conditions: dog, in vivo; after oral administration, 3 mg/kg
Method: (§1) A sham operation was performed for a Sham group. After the pacemaker was operated, and it was confirmed in an electrocardiogram (Lead II) that the heartbeat was linked to the pulse rate, the incision site was sutured.
(§2) The animals were grouped evenly based on the cardiac function (EF) 4 weeks after rapid pacing. […] An empty capsule was administered to the control group in the same manner.
(§3) Electrocardiography (Lead II) was performed once a week during the period of induction of pathological condition (4 weeks). After administration of the test substance, electrocardiography was performed at the time of echocardiographic measurement. Examination with a stethoscope was performed every day. Specifically, the number of beats per 10 seconds was measured every day, and if an abnormality was found in examination with a stethoscope, an electrocardiogram was measured to confirm the presence or absence of pacing errors.
(§4) The general condition of the animals (death, posture, activity, color of gums, the presence or absence of ascites, feces, etc.) and food intake were observed every day (at the time of administration in the morning and in the evening, i.e., twice). […] The survival rate was observed twice daily for 6 months from the day of the start of administration of the test substance. Moribund animals were determined to be dead when they had no reaction in at least one item of examination of pinna, auditory, and nociception reflexes.
(§5) The body weight was measured on the date of implantation of the pacemaker, the date of operation of the pacemaker, and every week thereafter.
(§6) Echocardiographic measurement was performed before the preparation of the model (Pre); Week 4 (at the time of grouping) (before administration of the test substance); and 2 weeks, 4 weeks (1 month), 2 months, 3 months, 4 months, 5 months, and 6 months (at the time of dissection) after the start of administration of the test substance, as measurement points.
(§7) The echocardiographic measurement was performed without anesthesia, using an ultrasound imaging apparatus. A sector probe (10 MHz) was placed on the chest, and the diastolic left ventricular internal dimension (LVIDd), the systolic left ventricular internal dimension (LVIDs), the interventricular septal thickness at end-diastole (IVSTd), and the left ventricular posterior wall thickness in end diastole (LVPWd) were measured at M-mode. Moreover, the ejection fraction […] and the fractional shortening […] were calculated.

[7] = tested on: canine rapid pacing severe dilated cardiomyopathy model; test: as above; format: in vivo
Method: as §1, §2, §3, §4, §5, §6, §7

[8] = tested on: spontaneous dilated cardiomyopathy (J2N-k) hamster model; test: Long-term (36 weeks) administration in J2N-k hamster model: cardiac function, survival rate; format: in vivo
Method: ONO-1301 and (K) candesartan, which is ARB, were each individually orally administered to a δ-glycan-deficient spontaneous dilated cardiomyopathy (J2N-k) hamster model twice daily repeatedly for 36 weeks, after the onset of pathological condition (20 weeks old); and changes in cardiac function and survival rates in long-term administration were compared for evaluation. Specifically, echocardiographic measurement was performed after the onset of pathological condition (20 weeks old); the animals were grouped evenly based on the ejection fractions (EF values) and the body weights (Table 15), and each test substance was individually administered for 36 weeks.
The test was performed in the same manner as described in the section “1. Investigation of effects in spontaneous dilated cardiomyopathy (J2N-k) hamster model” above.
ONO-1301 was administered at 3 mg/kg twice per day. Candesartan was administered at 3 mg/kg once per day, and only vehicle was administered at the second administration. To the control group, vehicle (0.5% CMC-Na) was administered twice daily.

[9] = Test 2, p.o. b.i.d., NOAEL-based dose
[10] = MI Test 1, NOAEL doses, 1 Day (grouping), mean ± S.D.
[11] = MI Test 1, NOAEL doses, 7 Day, mean ± S.D.
[12] = MI Test 1, NOAEL doses, 14 Day, mean ± S.D.
[13] = MI Test 1, NOAEL doses, 21 Day, mean ± S.D.
[14] = MI Test 1, NOAEL doses, 29 Day, mean ± S.D.
[15] = Test 1, p.o. b.i.d., NOAEL-based dose

## CC#CCC(C)[C@H](O)/C=C/[C@@H]1[C@H]2c3cccc(CCCC(=O)O)c3O[C@H]2C[C@H]1O (mixture of isomers) [Compound F, Beraprost sodium]
[1]; Test 2, at grouping
  Body weight 0 W: 119.9 g
[1]; Test 2, p.o. b.i.d.
  LVIDd 4 W: 7.1 mm
  LVIDd 8 W: 7.5 mm
  LVIDs 4 W: 5.9 mm
  LVIDs 8 W: 6.3 mm
[1]; [9]
  % FS 4 W: significantly higher
  % FS value of change at 4 W compared with 0 W: significantly higher
  Body weight 1 W: 120.8 g
  Body weight 2 W: 122.7 g
  Body weight 3 W: 124.9 g
  Body weight 4 W: 127.1 g
  Body weight 5 W: 128.2 g
  Body weight 6 W: 129.6 g
  Body weight 7 W: 129.9 g
  Body weight 8 W: 130.0 g
  EF 4 W: significantly higher
[2]; rats, 12 months
  No-observed-effect level: 0.01 mg/kg/day
[2]; repeated administration in rats, duration per compound
  Dose at which toxic findings were observed: ≥ 0.1 mg/kg/day
[3]
  Dose significantly ameliorating the disorder of the hind limbs: 300 µg/kg/day
[4]
  Action on left ventricular systolic function: suppression action on the deterioration of left ventricular systolic function
[4]; [10]
  Body weight: 230.4 ± 3.3 g
[4]; [11]
  % FS: value of change compared with the value on Day 1: 0%
  Body weight: 232.3 ± 10.0 g
  EF: value of change compared with the value on Day 1: 0%
[4]; [12]
  % FS: value of change compared with the value on Day 1: -2%
  Body weight: 252.6 ± 9.8 g
  EF: value of change compared with the value on Day 1: -3%
[4]; [13]
  Body weight: 272.9 ± 7.7 g
[4]; [14]
  % FS: value of change compared with the value on Day 1: -3%
  Body weight (g): 295.4 ± 8.6 (7) g
  EF: value of change compared with the value on Day 1: -6%
[4]; MI Test 1, until Day 29
  Body weight change compared with control group: Significant body weight gain suppression

## O=C(O)COc1cccc2c1CCC=C2CCO/N=C(\c1ccccc1)c1cccnc1 [Compound A, (E)-[5-[2-[1-phenyl-1-(3-pyridyl)methylideneaminooxy]ethyl]-7,8-dihydronaphthalen-1-yloxy]acetic acid]
[1]; Test 1, at grouping
  Body weight 0 W: 112.5 g
[1]; Test 1, p.o. b.i.d.
  LVIDd 4 W: 6.9 mm
  LVIDd 8 W: 7.6 mm
  LVIDs 4 W: 5.6 mm
  LVIDs 8 W: 6.2 mm
[1]; [15]
  Body weight 4 W: 120.2 g
  Body weight 8 W: 120.6 g
[2]; repeated oral administration in rats
  No-observed-adverse-effect level: 3 mg/kg
[5]
  No-observed-adverse-effect level: 3 mg/kg
[4]
  Action on left ventricular systolic function: suppression action on the deterioration of left ventricular systolic function
[4]; [10]
  Body weight: 231.4 ± 4.9 g
[4]; [11]
  % FS: value of change compared with the value on Day 1: 1%
  Body weight: 237.8 ± 15.0 g
  EF: value of change compared with the value on Day 1: 1%
[4]; [12]
  % FS: value of change compared with the value on Day 1: 0%
  Body weight: 257.1 ± 20.7 g
  EF: value of change compared with the value on Day 1: 0%
[4]; [13]
  Body weight: 277.1 ± 17.3 g
[4]; [14]
  % FS: value of change compared with the value on Day 1: -3%
  Body weight: 293.6 ± 18.9 g
  EF: value of change compared with the value on Day 1: -6%
[6]
  Tmax: 1.5 to 2.5 h
[7]; 3 mg/kg p.o. twice daily
  Number of animals alive 26 weeks after start of administration: 1/6
  Time after start of administration at which death was first observed: 44 days
[7]; 3 mg/kg p.o. twice daily, 26 weeks
  Survival rate (Kaplan-Meier curve) compared with control: significant prolonging effect on the survival rate
[7]; 2 weeks and 4 weeks after start of administration
  Amount of change (Δ) in EF compared with control: significantly higher
[7]; 6 weeks and 8 weeks after start of administration
  Body weight gain compared with control: suppressed
[7]; oral 3 mg/kg
  Effect on heart rate in echocardiography at Tmax: no effect on the heart rate
[8]
  Effect in long-term administration compared with candesartan: effect superior to that of candesartan
[8]; 3.0 mg/kg
  EF compared with control group: significant improvement effect
  FS% compared with control group: Significantly higher values
